Columns and labels:
[1] = tested on: A549; experiment: Cytotoxicity in human A549 cells assessed as reduction in cell viability incubated for 72 hrs by SRB assay; format: functional, cell-based; conditions: A549, 72 h
[2] = tested on: HCT-116; experiment: Cytotoxicity in human HCT116 cells assessed as reduction in cell viability incubated for 72 hrs by SRB assay; format: functional, cell-based; conditions: HCT-116, 72 h
[3] = tested on: SNU-638; experiment: Cytotoxicity in human SNU638 cells assessed as reduction in cell viability incubated for 72 hrs by SRB assay; format: functional, cell-based; conditions: SNU-638, 72 h
[4] = tested on: K562; experiment: Cytotoxicity in human K562 cells assessed as reduction in cell viability incubated for 72 hrs by SRB assay; format: functional, cell-based; conditions: K562, 72 h
[5] = tested on: SK-HEP1; experiment: Cytotoxicity in human SKHEP1 cells assessed as reduction in cell viability incubated for 72 hrs by SRB assay; format: functional, cell-based; conditions: SK-HEP1, 72 h
[6] = tested on: MDA-MB-231; experiment: Cytotoxicity in human MDA-MB-231 cells assessed as reduction in cell viability incubated for 72 hrs by SRB assay; format: functional, cell-based; conditions: MDA-MB-231, 72 h
[7] = tested on: Staphylococcus aureus; experiment: Antimicrobial activity against Staphylococcus aureus incubated for 24 hrs; format: functional
[8] = tested on: Bacillus subtilis; experiment: Antimicrobial activity against Bacillus subtilis incubated for 24 hrs; format: functional
[9] = tested on: Kocuria rhizophila; experiment: Antimicrobial activity against Kocuria rhizophila incubated for 24 hrs; format: functional
[10] = tested on: Proteus hauseri; experiment: Antimicrobial activity against Proteus hauseri incubated for 24 hrs; format: functional
[11] = tested on: Salmonella enterica; experiment: Antimicrobial activity against Salmonella enterica incubated for 24 hrs; format: functional
[12] = tested on: Escherichia coli; experiment: Antimicrobial activity against Escherichia coli incubated for 24 hrs; format: functional
[13] = tested on: Candida albicans; experiment: Antimicrobial activity against Candida albicans incubated for 24 hrs; format: functional
[14] = tested on: Aspergillus fumigatus; experiment: Antimicrobial activity against Aspergillus fumigatus incubated for 24 hrs; format: functional
[15] = Toxicity in mouse Hepa1c1c7 cells at 2.5 to 20 uM; format: cell-based

## CCCCCCCCCCCCCCCCCNC(=O)[C@H](O)CO[C@H]1O[C@H](CO)[C@@H](O)[C@H](O)[C@H]1NC(C)=O
[1]
  IC50: > 10 µM
[2]
  IC50: > 10 µM
[3]
  IC50: > 10 µM
[4]
  IC50: > 10 µM
[5]
  IC50: > 10 µM
[6]
  IC50: > 10 µM
[7]
  MIC: > 128 µM
[8]
  MIC: > 128 µM
[9]
  MIC: > 128 µM
[10]
  MIC: > 128 µM
[11]
  MIC: > 128 µM
[12]
  MIC: > 128 µM
[13]
  MIC: > 128 µM
[14]
  MIC: > 128 µM

## CCCCCCC/C=C\CCCCCCCCNC(=O)[C@H](O)CO[C@H]1O[C@H](CO)[C@@H](O)[C@H](O)[C@H]1NC(C)=O
[1]
  IC50: > 10 µM
[2]
  IC50: > 10 µM
[3]
  IC50: > 10 µM
[4]
  IC50: > 10 µM
[5]
  IC50: > 10 µM
[6]
  IC50: > 10 µM
[7]
  MIC: > 128 µM
[8]
  MIC: > 128 µM
[9]
  MIC: > 128 µM
[10]
  MIC: > 128 µM
[11]
  MIC: > 128 µM
[12]
  MIC: > 128 µM
[13]
  MIC: > 128 µM
[14]
  MIC: > 128 µM

## CCCCCCCCCCCCCCCCNC(=O)[C@H](O)CO[C@H]1O[C@H](CO)[C@@H](O)[C@H](O)[C@H]1NC(C)=O
[1]
  IC50: > 10 µM
[2]
  IC50: > 10 µM
[3]
  IC50: > 10 µM
[4]
  IC50: > 10 µM
[5]
  IC50: > 10 µM
[6]
  IC50: > 10 µM
[7]
  MIC: > 128 µM
[8]
  MIC: > 128 µM
[9]
  MIC: > 128 µM
[10]
  MIC: > 128 µM
[11]
  MIC: > 128 µM
[12]
  MIC: > 128 µM
[13]
  MIC: > 128 µM
[14]
  MIC: > 128 µM
[15]
  Activity: Non-Toxic

## CCCCCC/C=C\CCCCCCCCNC(=O)[C@H](O)CO[C@H]1O[C@H](CO)[C@@H](O)[C@H](O)[C@H]1NC(C)=O
[1]
  IC50: > 10 µM
[2]
  IC50: > 10 µM
[3]
  IC50: > 10 µM
[4]
  IC50: > 10 µM
[5]
  IC50: > 10 µM
[6]
  IC50: > 10 µM
[7]
  MIC: > 128 µM
[8]
  MIC: > 128 µM
[9]
  MIC: > 128 µM
[10]
  MIC: > 128 µM
[11]
  MIC: > 128 µM
[12]
  MIC: > 128 µM
[13]
  MIC: > 128 µM
[14]
  MIC: > 128 µM
[15]
  Activity: Non-Toxic
